From ChEMBL document CHEMBL5653631, “A Potent and Selective ULK1 Inhibitor Suppresses Autophagy and Sensitizes Cancer Cells to Nutrient Stress” (iScience, 2018)
Each block holds one compound with its values, some of them ahead of it.

Assays:
[1] = target: T1, Inhibitor of nuclear factor kappa-B kinase subunit alpha (Homo sapiens) (UniProt O15111); experiment: Inhibition of human recombinant IKKa at 500 nM in presence of ATP by radiometric assay relative to control
T1 sequence (whole entry): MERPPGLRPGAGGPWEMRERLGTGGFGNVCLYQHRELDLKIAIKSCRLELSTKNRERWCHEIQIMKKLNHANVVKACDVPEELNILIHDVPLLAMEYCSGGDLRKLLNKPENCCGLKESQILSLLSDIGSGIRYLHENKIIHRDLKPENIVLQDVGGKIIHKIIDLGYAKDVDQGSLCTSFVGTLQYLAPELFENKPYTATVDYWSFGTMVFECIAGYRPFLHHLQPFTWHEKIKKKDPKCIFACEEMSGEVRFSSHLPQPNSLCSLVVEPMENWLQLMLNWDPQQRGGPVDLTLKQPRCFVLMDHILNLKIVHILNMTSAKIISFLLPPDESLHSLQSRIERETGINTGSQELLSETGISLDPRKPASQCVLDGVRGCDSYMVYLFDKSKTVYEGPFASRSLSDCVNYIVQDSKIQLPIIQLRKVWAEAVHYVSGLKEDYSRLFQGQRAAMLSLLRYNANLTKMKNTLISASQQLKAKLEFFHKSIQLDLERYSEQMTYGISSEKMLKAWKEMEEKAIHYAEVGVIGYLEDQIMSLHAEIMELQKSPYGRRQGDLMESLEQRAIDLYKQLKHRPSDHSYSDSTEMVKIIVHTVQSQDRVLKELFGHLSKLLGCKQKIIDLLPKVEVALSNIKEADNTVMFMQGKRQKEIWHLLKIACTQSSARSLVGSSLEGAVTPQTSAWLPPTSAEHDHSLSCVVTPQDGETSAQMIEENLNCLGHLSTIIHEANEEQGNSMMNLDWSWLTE

[2] = target: T2, Serine/threonine-protein kinase TAO1 (Homo sapiens) (UniProt Q7L7X3); experiment: Inhibition of human recombinant TAO1 at 500 nM in presence of ATP by radiometric assay relative to control
T2 sequence (whole entry): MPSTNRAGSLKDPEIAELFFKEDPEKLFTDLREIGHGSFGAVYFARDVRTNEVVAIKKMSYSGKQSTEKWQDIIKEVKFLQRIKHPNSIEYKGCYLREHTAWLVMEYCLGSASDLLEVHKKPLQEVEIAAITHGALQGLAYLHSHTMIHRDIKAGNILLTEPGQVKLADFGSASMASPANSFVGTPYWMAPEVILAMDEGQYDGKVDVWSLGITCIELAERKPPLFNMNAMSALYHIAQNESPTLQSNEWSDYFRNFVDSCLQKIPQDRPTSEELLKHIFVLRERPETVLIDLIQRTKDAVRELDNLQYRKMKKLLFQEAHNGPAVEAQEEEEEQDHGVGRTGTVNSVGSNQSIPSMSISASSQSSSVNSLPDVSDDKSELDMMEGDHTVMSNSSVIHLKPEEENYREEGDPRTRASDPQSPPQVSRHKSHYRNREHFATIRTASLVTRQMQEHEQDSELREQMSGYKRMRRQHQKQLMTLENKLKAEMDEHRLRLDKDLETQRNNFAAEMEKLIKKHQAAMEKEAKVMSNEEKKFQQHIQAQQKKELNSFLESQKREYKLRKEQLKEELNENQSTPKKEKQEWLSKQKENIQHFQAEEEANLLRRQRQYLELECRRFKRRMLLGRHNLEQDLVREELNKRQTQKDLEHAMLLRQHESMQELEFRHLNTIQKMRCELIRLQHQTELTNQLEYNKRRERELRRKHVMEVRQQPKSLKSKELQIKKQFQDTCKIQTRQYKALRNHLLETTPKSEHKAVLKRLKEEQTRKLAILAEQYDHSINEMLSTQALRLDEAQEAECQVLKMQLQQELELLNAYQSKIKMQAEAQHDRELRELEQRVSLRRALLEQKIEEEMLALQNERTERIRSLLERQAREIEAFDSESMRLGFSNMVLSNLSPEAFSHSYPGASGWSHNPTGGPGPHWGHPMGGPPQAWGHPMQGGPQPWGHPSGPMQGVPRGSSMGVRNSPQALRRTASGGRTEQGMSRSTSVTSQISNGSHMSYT

[3] = target: Serine/threonine-protein kinase 32C (Homo sapiens) (UniProt Q86UX6); experiment: Inhibition of human recombinant YANK3 at 500 nM related to control ULK1
[4] = target: Tyrosine-protein kinase HCK (Homo sapiens) (UniProt P08631); experiment: Inhibition of human recombinant HCK at 40 nM in presence of ATP by radiometric assay relative to control
[5] = target: Serine/threonine-protein kinase SIK2 (Homo sapiens) (UniProt Q9H0K1); experiment: Inhibition of human recombinant QIK at 15 nM related to control ULK1
[6] = target: Calcium/calmodulin-dependent protein kinase type 1B (Homo sapiens) (UniProt Q6P2M8); experiment: Inhibition of human recombinant CaMK1b at 15 nM related to control ULK1
[7] = target: Serine/threonine-protein kinase MAK (Homo sapiens) (UniProt P20794); experiment: Inhibition of human recombinant MAK at 15 nM related to control ULK1
Chain of Serine/threonine-protein kinase MAK (Homo sapiens) (P20794 whole entry, looked up): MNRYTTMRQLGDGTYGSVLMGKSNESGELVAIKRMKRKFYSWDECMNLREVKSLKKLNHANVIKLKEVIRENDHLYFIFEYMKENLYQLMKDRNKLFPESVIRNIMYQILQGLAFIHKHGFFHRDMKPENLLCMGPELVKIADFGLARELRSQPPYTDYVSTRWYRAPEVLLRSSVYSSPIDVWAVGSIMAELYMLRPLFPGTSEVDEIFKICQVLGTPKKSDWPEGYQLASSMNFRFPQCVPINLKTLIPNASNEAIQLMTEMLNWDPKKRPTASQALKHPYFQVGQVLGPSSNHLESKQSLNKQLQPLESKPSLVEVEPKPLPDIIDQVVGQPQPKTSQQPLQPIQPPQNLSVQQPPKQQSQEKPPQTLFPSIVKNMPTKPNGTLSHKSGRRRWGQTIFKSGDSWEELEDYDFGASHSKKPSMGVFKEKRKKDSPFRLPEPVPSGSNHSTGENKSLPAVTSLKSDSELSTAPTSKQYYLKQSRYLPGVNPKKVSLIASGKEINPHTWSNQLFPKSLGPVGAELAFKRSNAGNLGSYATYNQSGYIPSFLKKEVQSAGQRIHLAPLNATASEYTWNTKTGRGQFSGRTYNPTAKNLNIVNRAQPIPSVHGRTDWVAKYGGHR

Chain of Serine/threonine-protein kinase 32C (Homo sapiens) (Q86UX6 whole entry): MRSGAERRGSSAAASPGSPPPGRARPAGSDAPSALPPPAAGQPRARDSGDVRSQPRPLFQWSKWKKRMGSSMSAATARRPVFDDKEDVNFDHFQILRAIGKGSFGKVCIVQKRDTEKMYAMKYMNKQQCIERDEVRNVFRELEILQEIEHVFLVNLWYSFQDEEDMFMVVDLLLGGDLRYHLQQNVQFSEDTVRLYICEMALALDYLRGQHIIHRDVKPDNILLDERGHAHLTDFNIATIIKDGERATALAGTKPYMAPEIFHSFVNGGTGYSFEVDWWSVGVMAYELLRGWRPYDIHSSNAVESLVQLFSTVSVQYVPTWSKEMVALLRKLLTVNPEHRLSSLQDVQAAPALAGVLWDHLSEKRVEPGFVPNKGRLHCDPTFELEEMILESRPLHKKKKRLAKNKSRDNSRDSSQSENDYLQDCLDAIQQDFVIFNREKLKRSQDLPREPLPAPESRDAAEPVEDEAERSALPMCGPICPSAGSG
Chain of Tyrosine-protein kinase HCK (Homo sapiens) (P08631 2-526 limits assumed): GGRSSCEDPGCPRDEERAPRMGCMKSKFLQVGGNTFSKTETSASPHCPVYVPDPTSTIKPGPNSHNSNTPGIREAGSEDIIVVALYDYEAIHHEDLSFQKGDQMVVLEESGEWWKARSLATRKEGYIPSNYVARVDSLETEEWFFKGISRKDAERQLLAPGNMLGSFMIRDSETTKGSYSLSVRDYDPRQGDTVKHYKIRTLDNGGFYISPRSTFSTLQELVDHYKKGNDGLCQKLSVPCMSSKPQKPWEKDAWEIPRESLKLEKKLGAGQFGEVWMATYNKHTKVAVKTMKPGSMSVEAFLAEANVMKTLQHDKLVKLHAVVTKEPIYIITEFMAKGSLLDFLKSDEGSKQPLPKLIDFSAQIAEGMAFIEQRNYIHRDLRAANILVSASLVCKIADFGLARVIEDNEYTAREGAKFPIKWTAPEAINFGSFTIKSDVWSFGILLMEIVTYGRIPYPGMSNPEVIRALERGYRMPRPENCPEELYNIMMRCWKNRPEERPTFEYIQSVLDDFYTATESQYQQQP
Chain of Calcium/calmodulin-dependent protein kinase type 1B (Homo sapiens) (Q6P2M8 whole entry): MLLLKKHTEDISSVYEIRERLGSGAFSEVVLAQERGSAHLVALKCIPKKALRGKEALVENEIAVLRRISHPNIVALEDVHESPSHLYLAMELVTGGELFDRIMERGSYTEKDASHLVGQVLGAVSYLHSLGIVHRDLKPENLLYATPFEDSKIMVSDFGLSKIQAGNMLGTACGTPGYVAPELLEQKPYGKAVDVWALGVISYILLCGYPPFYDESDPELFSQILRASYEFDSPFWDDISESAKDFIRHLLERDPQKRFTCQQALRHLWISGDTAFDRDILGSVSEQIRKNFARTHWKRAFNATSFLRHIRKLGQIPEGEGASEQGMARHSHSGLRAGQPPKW
Chain of Serine/threonine-protein kinase SIK2 (Homo sapiens) (Q9H0K1 whole entry, looked up): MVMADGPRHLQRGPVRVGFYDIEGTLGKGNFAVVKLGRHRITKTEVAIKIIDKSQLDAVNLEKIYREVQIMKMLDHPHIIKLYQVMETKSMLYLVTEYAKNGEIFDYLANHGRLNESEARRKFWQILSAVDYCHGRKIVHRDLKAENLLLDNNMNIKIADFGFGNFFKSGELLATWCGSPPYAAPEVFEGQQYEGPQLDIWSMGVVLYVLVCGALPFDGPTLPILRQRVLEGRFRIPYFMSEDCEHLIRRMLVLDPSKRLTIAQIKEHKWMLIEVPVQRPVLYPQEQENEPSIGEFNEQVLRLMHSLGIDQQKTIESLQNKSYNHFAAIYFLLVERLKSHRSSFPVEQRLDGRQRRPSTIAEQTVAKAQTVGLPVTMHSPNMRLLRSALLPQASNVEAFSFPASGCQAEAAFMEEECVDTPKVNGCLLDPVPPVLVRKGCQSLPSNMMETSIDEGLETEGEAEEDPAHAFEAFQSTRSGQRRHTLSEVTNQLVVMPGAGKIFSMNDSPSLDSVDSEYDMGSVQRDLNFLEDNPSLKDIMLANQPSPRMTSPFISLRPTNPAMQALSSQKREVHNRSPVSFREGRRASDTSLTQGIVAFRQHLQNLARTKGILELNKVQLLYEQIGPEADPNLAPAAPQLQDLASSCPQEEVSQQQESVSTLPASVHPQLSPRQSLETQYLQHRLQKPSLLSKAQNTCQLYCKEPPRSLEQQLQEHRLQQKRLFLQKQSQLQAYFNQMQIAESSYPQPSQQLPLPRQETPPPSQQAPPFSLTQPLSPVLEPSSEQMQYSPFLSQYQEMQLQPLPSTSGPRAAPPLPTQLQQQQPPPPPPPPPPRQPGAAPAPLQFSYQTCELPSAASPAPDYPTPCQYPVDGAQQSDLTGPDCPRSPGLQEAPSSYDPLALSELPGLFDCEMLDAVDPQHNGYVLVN

inhibition [1]: 2%
inhibition [2]: 6%
fold change (FC) [3]: 0
SMILES: CNC(=O)c1ccccc1Oc1nc(Nc2cc(OC)c(OC)c(OC)c2)ncc1Br

inhibition [4]: 0%
SMILES: O=C(N[C@@H](C1CC1)C(F)(F)F)c1cc(-c2cnn3cc(-c4ccc(F)cc4)cnc23)cs1

fold change (FC) [5]: 1.02
fold change (FC) [6]: 0
fold change (FC) [7]: 0.06
SMILES: CC(C)[C@H](NC(=O)c1cc(-c2cnn3cc(-c4ccc(OCCN5CCCCC5)cc4)cnc23)cs1)C(F)(F)F
